Source: ChEMBL document CHEMBL1138026, “Ketopyrrolidines and ketoazetidines as potent dipeptidyl peptidase IV (DPP IV) inhibitors” (Bioorg Med Chem Lett, 2004)

Assay: Inhibitory concentration against dipeptidyl peptidase IV

Row | IC50 [nM] | SMILES
1 | > 100000 | O=c1c(C2CCCCC2)nc(-c2nccs2)c2n1CCC2
2 | 40 | N[C@@H](C(=O)N1CC[C@@H]1C(=O)c1nccs1)C1CCCCC1
3 | 100 | CCC(C)C(N)C(=O)N1CCC[C@H]1C(=O)c1nc2ccccc2s1 (stereo not given in full)
4 | > 100000 | Cn1cncc1C(=O)[C@@H]1CCCN1C(=O)[C@@H]1C[C@@H]2CCCC[C@@H]2N1
5 | 150 | N[C@H](C(=O)N1CCSC1)C1CCCCC1
6 | 8 | N#C[C@@H]1CCCN1C(=O)[C@@H](N)C1CCCCC1
7 | 125 | N[C@H](C(=O)N1CCCC1)C1CCCCC1
8 | 300 | O=C(c1nc2ccccc2s1)[C@@H]1CCCN1C(=O)CNC1CCCCC1
9 | 190 | O=C(c1nc2ccccc2s1)[C@@H]1CCN1C(=O)CNC1CCCCC1
10 | 100 | CC(C)(C)NCC(=O)N1CCC1C(=O)c1nc2ccccc2s1 (stereo not given)
11 | 115 | O=C(c1nc2ccccc2s1)C1CCN1C(=O)[C@@H]1C[C@@H]2CCCC[C@@H]2N1 (stereo not given in full)
12 | > 100000 | O=C(c1ccccc1)[C@@H]1CCCN1C(=O)[C@@H]1C[C@@H]2CCCC[C@@H]2N1
13 | 1000 | N[C@@H](C(=O)N1CCC[C@@H]1C(=O)c1nccs1)C1CCCCC1
14 | > 100000 | CC(=O)[C@@H]1CCCN1C(=O)[C@@H]1C[C@@H]2CCCC[C@@H]2N1
15 | > 100000 | N[C@@H](C(=O)N1CCCC[C@H]1C(=O)c1nccs1)C1CCCCC1
16 | > 100000 | N[C@@H](C(=O)N1CCCC[C@@H]1C(=O)c1nccs1)C1CCCCC1
17 | 200 | CC[C@H](C)[C@H](N)C(=O)N1CC[C@H]1C(=O)c1nc2ccccc2s1

Row | SMILES | IC50 [nM]
18 | O=C(c1cccnc1)[C@@H]1CCCN1C(=O)[C@@H]1C[C@@H]2CCCC[C@@H]2N1 | > 100000
19 | C[C@H](N)C(=O)N1CCCC1P(=O)(Oc1ccccc1)Oc1ccccc1 (stereo not given in full) | 15

Assay: Inhibition constant against dipeptidyl peptidase IV

Row | SMILES | Ki [nM]
20 | CC(C)[C@H](N)C(=O)N1CCC[C@H]1B(O)O [TALABOSTAT] | 2
